Test results from patent EP4389749A1, “SUBSTITUTED 3,7-DIHYDRO-1H-PURINE-2,6-DIONES AND USE THEREOF” (invIOs GmbH, priority 2022, dated 2024).

Columns and labels:
CD4+ T-cells = assay: Immunostimulation assay with anti-CD3/28 stimulated T-cells, CD69 expression by flow cytometry; format: cell-based, human; conditions: T-cell; purified human CD4+ and CD8+ T-cells, 1 µg/ml anti-CD3, 1 µg/ml anti-CD28, 16 hours, surface FACS; read-out: EC50 CD4+
Procedure: (§1) Selection of potent compounds based on structure activity relation (SAR) using human, anti-CD3/28 stimulated T-cells. Enhanced activation of stimulated T-cells is measured by CD69 expression by flowcytometry.
(§2) White blood cell enriched buffy coats were ordered from the Austrian red cross, diluted with PBS to a total volume of 480 ml, 30 ml transferred to 50ml falcons and 11 ml lymphoprep added. Cell suspensions were centrifuged for 20 min at 2200 rpm and the PBMC containing layer transferred, three times washed with PBS and counted.
(§3) 10^7 PBMCs were magnetically labeled with CD4 and CD8 microbeads according to manufacturer's instructions and separated using autoMACS device. For dose response experiments with purified CD4+CD8+ T-cells 80000 cells were seeded per 96-well flat bottom cell culture dish.
(§4) 10 mM compounds of the invention stocks were further diluted using DMSO and equal amounts transferred to T-cell containing 96-wells. Final concentrations tested were: 30 µM, 10 µM, 3 µM, 1 µM, 0.3 µM, 0.1 µM, 0.03 µM, 0.01 µM, 0.003 µM and 0.001 µM.
(§5) For the stimulation assays 80.000 purified CD4+ and CD8+ T-cells were seeded per 96-well and incubated with 1 µg/ml anti-CD3, 1 µg/ml anti-CD28 and compounds of the invention ranging from 0.001 µM to 30 µM. DMSO only wells served as control to determine minimal T-cell activation upon stimulation and CD3/28 coupled Dynabeads were used to determine the maximal activation of T-cells. Cells were cultured for 16 hours in a humidified incubator at 37 °C and 5 % CO2.
(§6) T-cells were stained for surface antigens (anti-CD4 and anti-CD8) and cell activation markers (anti-CD25 and anti-CD69). Additionally, a fixable viability dye was used to stain viable cells. Staining was performed for 15 minutes and cells analyzed using a Fortessa flow cytometer and FlowJo Software. EC50s were calculated using GraphPad Prism® and a variable slope model (agonist vs. response - variable slope).

CD8+ T-cells = assay: as above; format: cell-based, human; conditions: T-cell; purified human CD4+ and CD8+ T-cells, 1 µg/ml anti-CD3, 1 µg/ml anti-CD28, 16 hours, surface FACS; read-out: EC50 CD8+
Procedure: as §1, §2, §3, §4, §5, §6

| Structure (SMILES) | EC50 (CD4+ T-cells) | EC50 (CD8+ T-cells) |
| --- | --- | --- |
| COc1cc(-c2nc3c(c(=O)[nH]c(=O)n3C[C@@H](C)O)n2C)ccc1OCc1ccccc1 [Compound 60, (R)-8-(4-(benzyloxy)-3-methoxyphenyl)-3-(2-hydroxypropyl)-7-methyl-3,7-dihydro-1H-purine-2,6-dione] | 1000 to 5000 nM | 1000 to 5000 nM |
| CC(O)Cn1c(=O)[nH]c(=O)c2c1nc(-c1ccc(Oc3ccc(OC(F)(F)F)cc3)c(C(F)(F)F)c1)n2C (centres unmarked) [Compound 155, 3-(2-hydroxypropyl)-7-methyl-8-(4-(4-(trifluoromethoxy)phenoxy)-3-(trifluoromethyl)phenyl)-3,7-dihydro-1H-purine-2,6-dione] | 1000 to 5000 nM | 1000 to 5000 nM |
| COc1ccc(COc2ccc(-c3nc4c(c(=O)[nH]c(=O)n4CC(C)O)n3C)cc2OC)cc1 (centres unmarked) [Compound 128, 3-(2-hydroxypropyl)-8-(3-methoxy-4-((4-methoxybenzyl)oxy)phenyl)-7-methyl-3,7-dihydro-1H-purine-2,6-dione] | 1000 to 5000 nM | 1000 to 5000 nM |
| CC(O)Cn1c(=O)[nH]c(=O)c2c1nc(-c1ccc(OCc3ccc(F)c(F)c3)c(F)c1)n2C (centres unmarked) [Compound 92, 8-(4-((3,4-difluorobenzyl)oxy)-3-fluorophenyl)-3-(2-hydroxypropyl)-7-methyl-3,7-dihydro-1H-purine-2,6-dione] | 1000 to 5000 nM | 1000 to 5000 nM |
| CC(O)Cn1c(=O)[nH]c(=O)c2c1nc(-c1ccc(Oc3cccc(OC(F)(F)F)c3)cc1)n2C (centres unmarked) [Compound 191, 3-(2-hydroxypropyl)-7-methyl-8-(4-(3-(trifluoromethoxy)phenoxy)phenyl)-3,7-dihydro-1H-purine-2,6-dione] | 500 to 1000 nM | 500 to 1000 nM |
| CC(O)Cn1c(=O)[nH]c(=O)c2c1nc(-c1ccc(Oc3ccc(Cl)cc3)c(Cl)c1)n2C (centres unmarked) [Compound 180, 8-(3-chloro-4-(4-chlorophenoxy)phenyl)-3-(2-hydroxypropyl)-7-methyl-3,7-dihydro-1H-purine-2,6-dione] | 1000 to 5000 nM | 500 to 1000 nM |
| COc1cc(-c2nc3c(c(=O)[nH]c(=O)n3CC(O)C(F)F)n2C)ccc1OCc1ccc(C(F)F)cc1 (centres unmarked) [Compound 79, 3-(3,3-difluoro-2-hydroxypropyl)-8-(4-((4-(difluoromethyl)benzyl)oxy)-3-methoxyphenyl)-7-methyl-3,7-dihydro-1H-purine-2,6-dione] | 100 to 500 nM | 100 to 500 nM |
| Cn1c(-c2ccc(Oc3ccc(OC(F)F)cc3)c(Cl)c2)nc2c1c(=O)[nH]c(=O)n2CC(O)C(F)(F)F (centres unmarked) [Compound 162, 8-(3-chloro-4-(4-(difluoromethoxy)phenoxy)phenyl)-7-methyl-3-(3,3,3-trifluoro-2-hydroxypropyl)-3,7-dihydro-1H-purine-2,6-dione] | 500 to 1000 nM | > 5000 nM |
| COc1cc(-c2nc3c(c(=O)[nH]c(=O)n3CC(O)CO)n2C)ccc1OCc1ccc(C)cc1 (centres unmarked) [Compound 94, 3-(2,3-dihydroxypropyl)-8-(3-methoxy-4-((4-methylbenzyl)oxy)phenyl)-7-methyl-3,7-dihydro-1H-purine-2,6-dione] | 1000 to 5000 nM | 1000 to 5000 nM |
| CC(O)Cn1c(=O)[nH]c(=O)c2c1nc(-c1ccc(Oc3ccc(Cl)cc3)cc1)n2C (centres unmarked) [Compound 138, 8-(4-(4-chlorophenoxy)phenyl)-3-(2-hydroxypropyl)-7-methyl-3,7-dihydro-1H-purine-2,6-dione] | 1000 to 5000 nM | 1000 to 5000 nM |
| COc1cc(-c2nc3c(c(=O)[nH]c(=O)n3CC(O)C(F)(F)F)n2C)ccc1OCc1ccc(C(F)F)cc1 (centres unmarked) [Compound 75, 8-(4-((4-(difluoromethyl)benzyl)oxy)-3-methoxyphenyl)-7-methyl-3-(3,3,3-trifluoro-2-hydroxypropyl)-3,7-dihydro-1H-purine-2,6-dione] | 100 to 500 nM | 100 to 500 nM |
| COc1cc(-c2nc3c(c(=O)[nH]c(=O)n3CC(O)CO)n2C)ccc1OCc1ccccc1 (centres unmarked) [Compound 55, 8-(4-(benzyloxy)-3-methoxyphenyl)-3-(2,3-dihydroxypropyl)-7-methyl-3,7-dihydro-1H-purine-2,6-dione] | 1000 to 5000 nM | 1000 to 5000 nM |

Continued, values first:

| EC50 (CD4+ T-cells) | EC50 (CD8+ T-cells) | Structure (SMILES) |
| --- | --- | --- |
| 1000 to 5000 nM | 1000 to 5000 nM | COc1cccc(Oc2ccc(-c3nc4c(c(=O)[nH]c(=O)n4CC(C)O)n3C)cc2)c1 (centres unmarked) [Compound 182, 3-(2-hydroxypropyl)-8-(4-(3-methoxyphenoxy)phenyl)-7-methyl-3,7-dihydro-1H-purine-2,6-dione] |
| 500 to 1000 nM | 100 to 500 nM | CC(CO)Cn1c(=O)[nH]c(=O)c2c1nc(-c1ccc(Oc3ccc(Cl)cc3)c(Cl)c1)n2C (centres unmarked) [Compound 150, 8-(3-chloro-4-(4-chlorophenoxy)phenyl)-3-(3-hydroxy-2-methylpropyl)-7-methyl-3,7-dihydro-1H-purine-2,6-dione] |
| 100 to 500 nM | 500 to 1000 nM | CC(O)Cn1c(=O)[nH]c(=O)c2c1nc(-c1ccc(Oc3ccc(OC(F)(F)F)c(Cl)c3)cc1)n2C (centres unmarked) [Compound 194, 8-(4-(3-chloro-4-(trifluoromethoxy)phenoxy)phenyl)-3-(2-hydroxypropyl)-7-methyl-3,7-dihydro-1H-purine-2,6-dione] |
| 100 to 500 nM | 100 to 500 nM | Cn1c(-c2ccc(Oc3ccc(OC(F)F)cc3)c(Cl)c2)nc2c1c(=O)[nH]c(=O)n2CC(O)CF (centres unmarked) [Compound 148, 8-(3-chloro-4-(4-(difluoromethoxy)phenoxy)phenyl)-3-(3-fluoro-2-hydroxypropyl)-7-methyl-3,7-dihydro-1H-purine-2,6-dione] |
| < 100 nM | < 100 nM | Cn1c(-c2ccc(Oc3ccc(Cl)cc3)c(Cl)c2)nc2c1c(=O)[nH]c(=O)n2CC(O)CF (centres unmarked) [Compound 147, 8-(3-chloro-4-(4-chlorophenoxy)phenyl)-3-(3-fluoro-2-hydroxypropyl)-7-methyl-3,7-dihydro-1H-purine-2,6-dione] |
| 100 to 500 nM | 100 to 500 nM | Cn1c(-c2ccc(OCc3ccc(C(F)F)cc3)c(F)c2)nc2c1c(=O)[nH]c(=O)n2CC(O)CF (centres unmarked) [Compound 63, 8-(4-((4-(difluoromethyl)benzyl)oxy)-3-fluorophenyl)-3-(3-fluoro-2-hydroxypropyl)-7-methyl-3,7-dihydro-1H-purine-2,6-dione] |
| 100 to 500 nM | 100 to 500 nM | COc1cc(-c2nc3c(c(=O)[nH]c(=O)n3CC(C)O)n2C)ccc1OCc1ccc(F)c(Cl)c1 (centres unmarked) [Compound 99, 8-(4-((3-chloro-4-fluorobenzyl)oxy)-3-methoxyphenyl)-3-(2-hydroxypropyl)-7-methyl-3,7-dihydro-1H-purine-2,6-dione] |
| 1000 to 5000 nM | 1000 to 5000 nM | COCC(O)Cn1c(=O)[nH]c(=O)c2c1nc(-c1ccc(OCc3ccccc3)c(OC)c1)n2C (centres unmarked) [Compound 54, 8-(4-(benzyloxy)-3-methoxyphenyl)-3-(2-hydroxy-3-methoxypropyl)-7-methyl-3,7-dihydro-1H-purine-2,6-dione] |
| 500 to 1000 nM | 100 to 500 nM | CC(O)Cn1c(=O)[nH]c(=O)c2c1nc(-c1ccc(OCCc3ccccc3)c(F)c1)n2C (centres unmarked) [Compound 200, 8-(3-fluoro-4-phenethoxyphenyl)-3-(2-hydroxypropyl)-7-methyl-3,7-dihydro-1H-purine-2,6-dione] |
| 1000 to 5000 nM | 1000 to 5000 nM | CC(O)Cn1c(=O)[nH]c(=O)c2c1nc(-c1ccc(Oc3cccc(C#N)c3)cc1)n2C (centres unmarked) [Compound 187, 3-(4-(3-(2-hydroxypropyl)-7-methyl-2,6-dioxo-2,3,6,7-tetrahydro-1H-purin-8-yl)phenoxy)benzonitrile] |
